Patent US8882877B2, “Boron-containing synergistic urea and preparation method and application thereof” (Beijing J-Tec Technology Co., Ltd, priority 2012, dated 2014)

What was measured:
celery = assay: Celery fertilizer test (equivalent and decrement fertilizer); format: in vivo
Source text: Test Three: Celery Fertilizer Test 1. Test material: The tested fertilizer is the boron-containing synergistic urea developed and supplied by Beijing J-Tec Technology Co., Ltd. (the boron-containing synergistic urea (1) in Embodiment 3) while the control fertilizer is ordinary small granular urea and large granular urea in line with national standards: the tested vegetable is celery. Area under jurisdiction of […], Shandong Province 3. Test Method: equivalent fertilizer test area and decrement fertilizer test area are arranged, two treatment areas are provided in each test area, and each treatment area is arranged repeatedly for 3 times, ranked in random area and group. Treatment Area 1: the boron-containing synergistic urea is applied, calculated by 70 kg per mu, and flushed together with water after emergence of seedlings; Treatment Area 2: ordinary small granular urea (as a control area, ck), calculated by 70 kg per mu, and flushed together with water after emergence of seedlings. Treatment Area 1: the boron-containing synergistic urea is applied with a decrement of 20%, calculated by 56 kg per mu, base fertilizer and additional fertilizer each makes up 50%; Treatment Area 2: ordinary large granular urea, calculated by 70 kg per mu, base fertilizer and additional fertilizer each makes up 50%. 4. Test Requirement: The celery in each treatment area is harvested, weighed, and calculated separately during each collection and harvest. No other fertilizer is applied during the whole test period, and other cultivation and management measures are the same.

tomato = assay: Tomato fertilizer test (equivalent and decrement fertilizer); format: in vivo
Source text: Test Four: Tomato Fertilizer Test
Test Site Laiyang: City, Shandong Province.
Grow seedling in greenhouse at Feb. 24, 2011, and plant in the greenhouse with a tomato plantation density of 4200 plant/mu.
(§1) 1. The tested fertilizer is the boron-containing synergistic urea developed and supplied by Beijing J-Tec Technology Co., Ltd. (the boron-containing synergistic urea (1) in Embodiment 3, under a trade name of “polypeptide chelated potassium”) while the control fertilizer is ordinary small granular urea and large granular urea in line with national standards; the tested vegetable is tomato (variety of “Millennium”, ? ).
(§2) 2. Test Method: equivalent fertilizer test area and decrement fertilizer test area are arranged, two treatment areas are provided in each test area, and each treatment area is arranged repeatedly for 3 times, ranked in random area and group, each treatment area has an area of 20 m^2 (5 m long, 4 m wide).
Treatment Area 1: the boron-containing synergistic urea is applied, calculated by 70 kg per mu, and flushed together with water after emergence of seedlings;
Treatment Area 2: ordinary small granular urea (as a control area, ck), calculated by 70 kg per mu, and flushed together with water after emergence of seedlings.
Treatment Area 1: the boron-containing synergistic urea is applied with a decrement of 20%, calculated by 56 kg per mu, base fertilizer and additional fertilizer each makes up 50%;
Treatment Area 2: ordinary large granular urea (as a control area, ck), calculated by 70 kg per mu, base fertilizer and additional fertilizer each makes up 50%.
3. Test Requirement: The tomato in each treatment area is harvested, weighed, and calculated separately during each collection and harvest. No other fertilizer is applied during the whole test period, and other cultivation and management measures are the same.
Select one plot (12 plots in total, indicated as 1st plot, 2nd plot and 3rd plot corresponding to each test) randomly from each treatment area 1 and treatment area 2 (control area) respectively, all are 1 m long, 1.45 m wide, and the harvested tomato is weighed on site, and results are as follows: […]

soybean = assay: Soybean fertilizer field plot test; format: in vivo
Source text: Test One: Soybean Fertilizer Test During the process of growth, the moisture and temperature are basically normal, which have no particular influence on the test. The basic information for the test plot is: mound albic soil, organic matter content 3.73%, and thickness of black soil layer is 18-20 cm, 1. The tested fertilizer is the boron-containing synergistic urea developed and supplied by Beijing J-Tec Technology Co., Ltd. (the boron-containing synergistic urea (1) in Embodiment 3) while the control fertilizer is ordinary urea available in the market. 2. Field tests adopt plot test (the test plot is located in Haluo Town, […], Shandong Province), three test areas are provided, each test area is divided into three treatment areas, each treatment area is 25.2 m^2, and the three test areas are tested in parallel. Apply base fertilizers uniformly in each test area and sow 4 rows in each treatment area, and subsequently apply additional fertilizers in the three treatment areas as below: Treatment Area 1: additionally apply 5 kg boron-containing synergistic urea once per mu in the flowering and pod bearing period of the soybean; Treatment Area 2: additionally apply 4 kg boron-containing synergistic urea once per mu in the flowering and pod bearing period of the soybean; Treatment Area 3 (control area, ck): additionally apply 5 kg ordinary urea once per mu in the flowering and pod bearing period of the soybean as a control; 4. Adopt normal field management in the growth period of the soybean, harvest and monitor the yield in the mature period respectively, and take the average values of the corresponding treatment areas in the three test areas as the statistical results, see Table 1.

rape = assay: Rape fertilizer test (topdressing); format: in vivo; details: topdressing 20 kg per mu
Source text: Test Two: Rape Fertilizer Test 1. Test Material: The tested fertilizer is the boron-containing synergistic urea developed and supplied by Beijing J-Tec Technology Co., Ltd. (the boron-containing synergistic urea (1) in Embodiment 3) while the control fertilizer is ordinary urea available in the market. Nanyang site: Yuanxiang Village, Nanyang Town, Qidong City of Jiangsu Province, an area of 4 mu, rape variety is “Shi Li Jia ? )”. Lvsi site: Nanxinqiao Village, […] Town, Qidong City, an area of 5 mu. 3. Test Method: the boron-containing synergistic urea is used as a topdressing fertilizer (additional fertilizer), 20 kg per mu; while the control field adopts ordinary urea (commercially available), 20 kg per mu. 4. Assessment Content: prior to harvest, field assessments such as density, plant height, effective branch, yield structure are conducted; after harvest, recount the actual yield, and the results are shown in Table 3.

bacterial wilt = assay: Tomato disease resistance: incidence of bacterial wilt; format: in vivo; details: tomato plants in test area vs control area (ck)
Source text: as §1, §2
1. Tomato Growing Potential and Disease Resistance

apple tree = assay: Apple tree fertilizer test (equivalent and decrement fertilizer); format: in vivo, apple tree (Red Fuji apple); details: Control Test Area, ordinary urea 70 kg per mu
Source text: Test Five: Apple Tree Fertilizer Test 1. Test Fertilizer: the tested fertilizer is the boron-containing synergistic urea developed and supplied by Beijing J-Tec Technology Co., Ltd. (the boron-containing synergistic urea (1) in Embodiment 3) while the control fertilizer is ordinary small granular urea and large granular urea in line with national standards the tested fruit tree is apple tree (variety of “Red Fuji apple”, ? ). 2. Test Site: […], Shandong Province, 3. Tested Variety: apple tree of four years old, variety is Red Fuji apple, planting space is 2 m×3 m, plants with moderate growth, similar tree vigor, and substantially consistent yield, and conventional orchard management is conducted before the test. 4. Test Method: equivalent fertilizer test area and decrement fertilizer test area are arranged, two treatment areas are provided in each test area, 3 tested plants are included in each treatment area and each treatment area is arranged repeatedly for 3 times, ranked in random area and group; The fertilizer is applied in small holes near the plants, and the fertilizing periods are fertilizer application after leaves falling in autumn and additional fertilizer application during fruit expanding period (July and August). Treatment Area 1: the boron-containing synergistic urea is applied, calculated by 70 kg per mu, and flushed together with water; Treatment Area 2: ordinary small granular urea (as a control area, ck), calculated by 70 kg per mu, and flushed together with water. Treatment Area 1: the boron-containing synergistic urea is applied with a decrement of 20%, calculated by 56 kg per mu, base fertilizer and additional fertilizer each makes up 50%; Treatment Area 2: ordinary large granular urea (as a control area, ck), calculated by 70 kg per mu, base fertilizer and additional fertilizer each makes up 50%. Make statistical analysis to flowering numbers and petal numbers in each flower during full-blossom period in spring, and make statistical analysis to fruit setting percentage after full-blossom period and before flower thinning. Measure and record once a month after growth of new shoots; Pick 30 fruits randomly from different portions after fruit ripening, and weigh the single fruit with an electronic balance scale, measure the longitudinal diameter and the transverse diameter with a vernier caliper; observe the fruit surface and the coloring of the fruit; determine the hardness of fruit with a hardometer.

[1] = Decrement fertilizer test (56 kg per mu) and its control (70 kg per mu)
[2] = Decrement fertilizer test (synergistic urea 56 kg per mu) and its control (large granular urea 70 kg per mu)
[3] = Equivalent fertilizer test and its control, 70 kg per mu
[4] = Equivalent fertilizer test and its control, 70 kg per mu, flushed with water
[5] = Treatment Area 1 / 3 (ck): 5 kg per mu
[6] = Treatment Area 1 / 3 (ck): 5 kg per mu once in flowering and pod bearing period
[7] = Lvsi site, two months after fertilizer application
[8] = Nanyang site, two months after fertilizer application

SMILES: NC(N)=O [ordinary large granular urea, urea]
- Yield (celery; 20% decrement fertilizer test, 1st plot, synergistic urea 56 kg per mu, control large granular urea 70 kg per mu): 6.8 kg
- Yield (celery; 20% decrement fertilizer test, 2nd plot, synergistic urea 56 kg per mu, control large granular urea 70 kg per mu): 6.0 kg
- Yield (celery; 20% decrement fertilizer test, 3rd plot, synergistic urea 56 kg per mu, control large granular urea 70 kg per mu): 5.7 kg
- Yield (celery; 20% decrement fertilizer test, three plots in total, synergistic urea 56 kg per mu, control 70 kg per mu): 18.5 kg
- observation of celery leaves (celery; Decrement fertilizer test, 30 days after sowing): green and thin leaves
- Average Yield among three plots (tomato; [1]): 116.0 kg
- Average Yield per mu (tomato; [1]): 3896.7 kg
- Yield 1st plot (tomato; [2]): 114.3 kg
- Yield 2nd plot (tomato; [2]): 118.1 kg
- Yield 3rd plot (tomato; [2]): 115.6 kg

SMILES: NC(N)=O [ordinary small granular urea, urea]
- Yield (celery; Equivalent fertilizer test, 70 kg per mu, 1st plot (1 m x 1.45 m), 52 days after applying fertilizer): 6.6 kg
- Yield (celery; Equivalent fertilizer test, 70 kg per mu, 2nd plot, 52 days after applying fertilizer): 7.5 kg
- Yield (celery; Equivalent fertilizer test, 70 kg per mu, 3rd plot, 52 days after applying fertilizer): 8.15 kg
- Yield (celery; Equivalent fertilizer test, 70 kg per mu, three plots in total): 22.25 kg
- Average Yield among three plots (tomato; [3]): 114.5 kg
- Average Yield per mu (tomato; [3]): 3863.3 kg
- Yield 1st plot (tomato; [4]): 111.6 kg
- Yield 2nd plot (tomato; [4]): 113.8 kg
- Yield 3rd plot (tomato; [4]): 118.0 kg

SMILES: NC(N)=O [ordinary urea, urea]
- Practical Yield (soybean; [5]): 131.8 kg/mu
- Theoretical Yield (soybean; [5]): 134.5 kg/mu
- 100-Grain Weight (soybean; [6]): 15.7 g
- Diseased Grain Rate (soybean; [6]): 9.7%
- Grains Weight (soybean; [6]): 7.5 g/Plant
- Grains per Plant (soybean; [6]): 65.8 Grains/Plant
- Plant Height (soybean; [6]): 77.4 cm
- Unfilled Grains (soybean; [6]): 28.9 Grains/Plant
- Worm Eaten Rate (soybean; [6]): 17.9%
- pods per plant (soybean; [6]): 30.1 Pods/Plant
- 1000-Grain Weight (rape; Average of the two test sites): 4.1 g
- Density (rape; Average of the two test sites): 5550 plant
- Effective Branch (rape; Average of the two test sites): 27 each
- Grains per pod (rape; Average of the two test sites): 19.8 grain
- Plant Height (rape; Average of the two test sites): 190.5 cm
- Yield (rape; Average of the two test sites): 262.7 kg/mu
- pods per plant (rape; Average of the two test sites): 583 pod
- Yield (rape; Lvsi site): 251.7 kg/mu
- 1000-Grain Weight (rape; [7]): 3.7 g
- Density (rape; [7]): 5550 plant
- Effective Branch (rape; [7]): 26 each
- Grains per pod (rape; [7]): 20.5 grain
- Plant Height (rape; [7]): 185 cm
- pods per plant (rape; [7]): 598 pod
- Yield (rape; Nanyang site): 269.5 kg/mu
- 1000-Grain Weight (rape; [8]): 4.5 g
- Density (rape; [8]): 5550 plant
- Effective Branch (rape; [8]): 28 each
- Grains per pod (rape; [8]): 19 grain
- Plant Height (rape; [8]): 196 cm
- pods per plant (rape; [8]): 568 pod
- incidence of bacterial wilt (bacterial wilt): 4.54%
- Fruit Setting Percentage (apple tree): 74.6%
- Increment of New Shoots (apple tree): 34.50 cm
- Leaf Weight (apple tree): 79.74 g
- Single Fruit Weight (apple tree): 202.1 g
